Results taken from PMC4503722, “Novel Phenotypic Outcomes Identified for a Public Collection of Approved Drugs from a Publicly Accessible Panel of Assays” (PLoS ONE, 2015).
pEC50, pIC50: −log10 of the molar value. Where two headings read alike, the source gives them in different places.

Columns and labels:
[1] = system: HCT116 cells treated with a GSK3β inhibitor; assay: cells; assay type: cell-based
hGSK3b = molecular target: T1, hGSK3b (Homo sapiens, UniProt P49841); assay: Cerep LANCE kinase assay hGSK3b (S1 assay 34); assay type: biochemical; conditions: for pIC50: read-out: GSK3b
T1 construct: purchased Cerep (LANCE kinase assay platform, contract assay)
T1 sequence (P49841 whole entry): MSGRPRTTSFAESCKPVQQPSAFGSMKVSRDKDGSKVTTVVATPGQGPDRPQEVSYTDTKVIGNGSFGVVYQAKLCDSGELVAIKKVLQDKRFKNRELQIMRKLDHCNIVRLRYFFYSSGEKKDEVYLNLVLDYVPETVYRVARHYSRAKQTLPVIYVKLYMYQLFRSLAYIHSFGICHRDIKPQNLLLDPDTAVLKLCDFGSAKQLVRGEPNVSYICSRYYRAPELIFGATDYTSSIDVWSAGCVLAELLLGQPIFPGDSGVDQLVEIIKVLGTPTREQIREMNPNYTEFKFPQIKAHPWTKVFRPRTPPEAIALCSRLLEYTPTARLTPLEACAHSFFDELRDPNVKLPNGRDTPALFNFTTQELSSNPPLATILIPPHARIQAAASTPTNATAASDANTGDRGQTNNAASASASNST

NCI-H716 cells = assay: cells; assay type: cell-based, Human
[2] = system: nuclear β-catenin in C2C12 cells; assay: cells; assay type: cell-based
INS-1E cells = assay: cells; assay type: cell-based, rat
[3] = system: endothelial tube formation in co-cultures of ECFCs and ADSCs treated with VEGF; assay: cells; assay type: cell-based, human; conditions: for pIC50: read-out: Anti-Angiogenesis
hJAK2 = molecular target: T2, hJAK2 (Homo sapiens, UniProt O60674); assay: Cerep LANCE kinase assay hJAK2 (S1 assay 33); assay type: biochemical; conditions: for pIC50: read-out: JAK2
T2 construct: purchased Cerep (LANCE kinase assay platform, contract assay)
T2 sequence (O60674 whole entry): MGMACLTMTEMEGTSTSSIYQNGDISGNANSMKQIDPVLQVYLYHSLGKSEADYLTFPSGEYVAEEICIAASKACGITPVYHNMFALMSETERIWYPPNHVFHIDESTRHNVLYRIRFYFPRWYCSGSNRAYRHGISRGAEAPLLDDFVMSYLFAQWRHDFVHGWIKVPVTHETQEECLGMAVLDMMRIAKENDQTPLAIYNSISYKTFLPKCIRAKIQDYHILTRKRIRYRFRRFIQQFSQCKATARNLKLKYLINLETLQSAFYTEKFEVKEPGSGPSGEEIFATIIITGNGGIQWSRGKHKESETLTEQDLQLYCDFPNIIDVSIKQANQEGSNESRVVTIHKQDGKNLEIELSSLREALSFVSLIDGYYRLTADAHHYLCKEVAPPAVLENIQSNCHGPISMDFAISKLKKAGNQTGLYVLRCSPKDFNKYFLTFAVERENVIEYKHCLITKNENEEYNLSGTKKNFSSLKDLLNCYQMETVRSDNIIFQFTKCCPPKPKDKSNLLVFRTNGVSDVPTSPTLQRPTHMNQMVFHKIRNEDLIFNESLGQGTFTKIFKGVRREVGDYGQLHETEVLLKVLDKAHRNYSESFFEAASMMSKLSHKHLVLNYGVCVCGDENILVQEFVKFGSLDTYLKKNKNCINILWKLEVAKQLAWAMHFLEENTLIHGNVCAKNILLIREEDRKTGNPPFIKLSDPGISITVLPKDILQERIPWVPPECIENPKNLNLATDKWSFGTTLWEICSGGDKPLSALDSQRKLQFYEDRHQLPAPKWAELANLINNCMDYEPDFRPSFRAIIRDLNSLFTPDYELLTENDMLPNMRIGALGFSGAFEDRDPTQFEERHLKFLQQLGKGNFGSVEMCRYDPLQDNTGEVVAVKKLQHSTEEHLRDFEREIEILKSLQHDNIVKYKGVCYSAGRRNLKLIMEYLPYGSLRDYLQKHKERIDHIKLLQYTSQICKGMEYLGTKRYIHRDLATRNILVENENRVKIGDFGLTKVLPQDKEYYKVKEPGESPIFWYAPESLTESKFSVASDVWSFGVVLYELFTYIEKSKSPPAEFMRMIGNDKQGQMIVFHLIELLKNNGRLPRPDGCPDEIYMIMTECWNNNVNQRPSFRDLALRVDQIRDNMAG

hFLT3 = molecular target: T3, hFLT3 (Homo sapiens, UniProt P36888); assay: Cerep LANCE kinase assay hFLT3 (S1 assay 35); assay type: biochemical; conditions: for pIC50: read-out: FLT3
T3 construct: purchased Cerep (LANCE kinase assay platform, contract assay)
T3 sequence (P36888 27-993): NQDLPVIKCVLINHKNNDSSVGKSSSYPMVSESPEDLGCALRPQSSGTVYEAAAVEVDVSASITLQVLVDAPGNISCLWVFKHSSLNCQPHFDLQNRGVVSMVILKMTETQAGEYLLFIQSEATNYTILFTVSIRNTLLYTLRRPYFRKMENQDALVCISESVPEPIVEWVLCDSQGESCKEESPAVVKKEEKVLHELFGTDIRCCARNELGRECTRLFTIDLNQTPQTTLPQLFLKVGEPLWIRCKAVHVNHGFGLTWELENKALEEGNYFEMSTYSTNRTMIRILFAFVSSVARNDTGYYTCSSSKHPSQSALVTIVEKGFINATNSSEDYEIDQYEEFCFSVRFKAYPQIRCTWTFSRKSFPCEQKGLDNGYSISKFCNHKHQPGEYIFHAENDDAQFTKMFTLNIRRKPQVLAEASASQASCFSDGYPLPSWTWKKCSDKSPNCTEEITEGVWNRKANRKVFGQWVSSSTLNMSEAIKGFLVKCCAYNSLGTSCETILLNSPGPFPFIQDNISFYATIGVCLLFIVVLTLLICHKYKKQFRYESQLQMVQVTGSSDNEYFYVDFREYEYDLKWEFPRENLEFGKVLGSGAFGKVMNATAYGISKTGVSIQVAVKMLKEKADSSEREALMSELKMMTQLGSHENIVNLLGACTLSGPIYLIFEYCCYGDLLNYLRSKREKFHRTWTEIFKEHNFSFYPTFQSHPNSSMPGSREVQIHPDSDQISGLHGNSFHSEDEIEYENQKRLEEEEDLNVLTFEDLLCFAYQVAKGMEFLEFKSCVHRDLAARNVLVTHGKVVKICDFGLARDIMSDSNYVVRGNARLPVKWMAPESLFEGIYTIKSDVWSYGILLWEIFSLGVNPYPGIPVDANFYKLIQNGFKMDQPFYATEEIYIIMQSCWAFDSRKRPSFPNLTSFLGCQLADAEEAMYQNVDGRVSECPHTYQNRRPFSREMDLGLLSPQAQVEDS

hp70S6K1 (RPS6KB1) = molecular target: T4, hp70S6K1 (RPS6KB1) (Homo sapiens, UniProt P23443); assay: Cerep LANCE kinase assay hp70S6K1 (S1 assay 31); assay type: biochemical; conditions: for pIC50: read-out: p70S6K1
T4 construct: purchased Cerep (LANCE kinase assay platform, contract assay)
T4 sequence (P23443 whole entry): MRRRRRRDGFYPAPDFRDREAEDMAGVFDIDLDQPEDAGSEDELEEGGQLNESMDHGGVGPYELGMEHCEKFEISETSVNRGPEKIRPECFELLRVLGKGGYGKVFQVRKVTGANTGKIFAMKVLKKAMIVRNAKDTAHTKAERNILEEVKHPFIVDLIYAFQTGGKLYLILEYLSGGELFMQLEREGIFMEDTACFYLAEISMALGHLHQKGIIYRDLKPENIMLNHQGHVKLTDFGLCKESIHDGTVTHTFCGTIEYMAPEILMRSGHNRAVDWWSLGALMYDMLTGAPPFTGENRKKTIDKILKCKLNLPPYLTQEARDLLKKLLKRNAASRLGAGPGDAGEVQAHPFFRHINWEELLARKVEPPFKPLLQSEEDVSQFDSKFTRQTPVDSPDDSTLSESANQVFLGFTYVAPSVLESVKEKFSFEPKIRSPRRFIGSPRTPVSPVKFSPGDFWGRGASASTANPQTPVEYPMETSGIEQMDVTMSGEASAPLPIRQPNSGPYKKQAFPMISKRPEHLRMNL

hKDR = molecular target: T5, hKDR (Homo sapiens, UniProt P35968); assay: Cerep LANCE kinase assay hKDR (S1 assay 32); assay type: biochemical; conditions: for pIC50: read-out: KDR
T5 construct: purchased Cerep (LANCE kinase assay platform, contract assay)
T5 sequence (P35968 20-1356): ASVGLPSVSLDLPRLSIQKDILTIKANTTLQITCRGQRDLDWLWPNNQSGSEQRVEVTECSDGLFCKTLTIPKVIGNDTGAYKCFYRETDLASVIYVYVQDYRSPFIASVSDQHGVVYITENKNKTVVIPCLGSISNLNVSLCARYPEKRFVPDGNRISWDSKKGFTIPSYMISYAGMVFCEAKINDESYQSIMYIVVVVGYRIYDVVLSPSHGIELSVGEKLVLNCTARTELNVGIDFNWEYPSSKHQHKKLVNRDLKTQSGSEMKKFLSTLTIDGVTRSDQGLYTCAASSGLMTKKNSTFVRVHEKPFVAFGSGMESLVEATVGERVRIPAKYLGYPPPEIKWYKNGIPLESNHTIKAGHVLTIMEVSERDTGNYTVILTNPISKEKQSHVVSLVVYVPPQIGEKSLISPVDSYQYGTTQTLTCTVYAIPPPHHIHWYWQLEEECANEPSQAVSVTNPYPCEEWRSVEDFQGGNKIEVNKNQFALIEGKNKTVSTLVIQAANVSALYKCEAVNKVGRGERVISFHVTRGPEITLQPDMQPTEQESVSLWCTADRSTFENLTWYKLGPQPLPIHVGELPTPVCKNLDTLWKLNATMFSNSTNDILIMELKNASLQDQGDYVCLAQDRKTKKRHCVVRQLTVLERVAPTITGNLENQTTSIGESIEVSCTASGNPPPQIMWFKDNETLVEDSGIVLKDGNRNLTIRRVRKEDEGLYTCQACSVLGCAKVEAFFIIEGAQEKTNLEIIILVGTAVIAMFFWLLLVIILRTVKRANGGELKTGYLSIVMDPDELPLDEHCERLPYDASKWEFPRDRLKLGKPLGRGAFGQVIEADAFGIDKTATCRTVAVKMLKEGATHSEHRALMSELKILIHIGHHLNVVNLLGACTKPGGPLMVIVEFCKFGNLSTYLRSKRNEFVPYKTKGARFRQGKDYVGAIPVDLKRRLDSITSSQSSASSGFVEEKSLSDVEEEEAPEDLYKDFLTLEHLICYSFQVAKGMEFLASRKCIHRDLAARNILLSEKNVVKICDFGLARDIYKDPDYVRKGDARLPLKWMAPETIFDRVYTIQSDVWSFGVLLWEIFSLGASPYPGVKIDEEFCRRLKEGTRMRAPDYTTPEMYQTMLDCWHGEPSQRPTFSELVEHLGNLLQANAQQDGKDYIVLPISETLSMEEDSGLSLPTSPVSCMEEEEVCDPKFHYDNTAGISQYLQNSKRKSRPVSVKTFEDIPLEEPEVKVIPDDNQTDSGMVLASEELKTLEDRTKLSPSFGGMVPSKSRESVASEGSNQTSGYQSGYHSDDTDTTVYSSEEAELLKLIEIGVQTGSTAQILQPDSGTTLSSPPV

DLD-1 = assay: cells; assay type: cell-based
HeLa cells = assay: cells; assay type: cell-based; conditions: for pEC50: HeLa, read-out: CellCycle G2/M
SW480 = assay: cells; assay type: cell-based
HCT116 = assay: cells; assay type: cell-based
SNU-C1 = assay: cells; assay type: cell-based; conditions: for pIC50: Homo sapiens
RKO = assay: cells; assay type: cell-based; conditions: for pIC50: Homo sapiens, RKO
Colo320 = assay: cells; assay type: cell-based; conditions: for pIC50: Homo sapiens
[4] = system: ECFC/ADSC co-culture cell nuclei number
HT-29 = assay: cells; assay type: cell-based; conditions: for pIC50: Homo sapiens
[5] = GSK3b inhibitor pretreated, read-out: GSK3b inh pretreated_Viability ATP HCT116
[6] = IC50 / EC50, NCI-H716, read-out: GLP 1 Secretion
[7] = IC50 / EC50, C2C12 beta-catenin translocation, read-out: Wnt Pathway
[8] = IC50 / EC50, INS-1E, read-out: Insulin Secretion
[9] = IC50 / EC50, endothelial tube area, ADSC/ECFC co-culture
[10] = basal, read-out: Basal_Viability ATP DLD-1
[11] = basal, read-out: Basal_Viability ATP SW480
[12] = basal, read-out: Basal_Viability ATP HCT116
[13] = Homo sapiens, HCT-116, read-out: GSK3b inh pretreated_Viability ATP HCT116
[14] = SNU-C1, read-out: Basal_Viability ATP SNU-C1
[15] = Homo sapiens, NCI-H716, read-out: GLP 1 Secretion
[16] = Rattus norvegicus, INS-1E, read-out: Insulin Secretion
[17] = Homo sapiens, DLD-1, read-out: Basal_Viability ATP DLD-1
[18] = HT-29, read-out: Basal_Viability ATP HT-29
[19] = Homo sapiens, SW480, read-out: Basal_Viability ATP SW480
[20] = Homo sapiens, HCT-116, read-out: Basal_Viability ATP HCT116

C[C@@H]1C[C@@H]([C@H](O)CC2CC(=O)NC(=O)C2)C(=O)[C@@H](C)C1
pIC50 [1, 5]: 5.99 | pIC50 (hGSK3b): < 4.70 | pEC50 (NCI-H716 cells; [6]): < 5.00 | pEC50 [2, 7]: < 5.00 | pEC50 (INS-1E cells; [8]): < 5.00 | pIC50 [3, 9]: 5.94 | pIC50 (hJAK2): < 4.70 | pIC50 (hFLT3): < 4.70 | pIC50 (hp70S6K1 (RPS6KB1)): < 4.70 | pIC50 (hKDR): < 4.70 | pIC50 (DLD-1; [10]): 5.45 | pEC50 (HeLa cells; IC50 / EC50): < 5.00 | pIC50 (SW480; [11]): 5.52 | pIC50 (HCT116; [12]): 5.70

COC(=O)c1nc(Cl)c(Cl)nc1N
pIC50 ([1]; HCT116 pretreated with GSK3b inhibitor, read-out: GSK3b inh pretreated_Viability ATP HCT116): 6.53 | pIC50 (hGSK3b; kinase assay): < 4.70 | pEC50 (NCI-H716 cells; S2 Table, module primary assay, 20 / 20.1 codes per legend, read-out: GLP 1 Secretion): < 5.00 | pEC50 ([2]; read-out: Wnt Pathway): 6.81 | pEC50 (INS-1E cells; S2 Table, module primary assay, 20 / 20.1 codes per legend, read-out: Insulin Secretion): < 5.00 | pIC50 [3]: 6.06 | pIC50 (hJAK2; kinase assay): < 4.70 | pIC50 (hFLT3; kinase assay): 5.54 | pIC50 (hp70S6K1 (RPS6KB1); kinase assay): < 4.70 | pIC50 (hKDR; kinase assay): < 4.70 | pIC50 (DLD-1; basal, DLD-1, read-out: Basal_Viability ATP DLD-1): 6.08 | pEC50 (HeLa cells; S2 Table, 20 = no response at highest concentration): 6.29 | pIC50 (SW480; basal, SW480, read-out: Basal_Viability ATP SW480): 6.06 | pIC50 (HCT116; basal, HCT116, read-out: Basal_Viability ATP HCT116): 6.49

Cc1cc(O)c2ccccc2c1O [2-Methyl-1,4-naphthalenediol]
pIC50 [1, 5]: 5.02 | pIC50 (hGSK3b): 4.72 | pEC50 (NCI-H716 cells; [6]): < 5.00 | pEC50 [2, 7]: 5.76 | pEC50 (INS-1E cells; [8]): < 5.00 | pIC50 [3, 9]: 5.31 | pIC50 (hJAK2): < 4.70 | pIC50 (hFLT3): < 4.70 | pIC50 (hp70S6K1 (RPS6KB1)): < 4.70 | pIC50 (hKDR): 4.74 | pIC50 (DLD-1; [10]): 5.00 | pEC50 (HeLa cells; IC50 / EC50): < 5.00 | pIC50 (SW480; [11]): 5.15 | pIC50 (HCT116; [12]): 5.83

O=C(O)c1ccc(-n2nc(-c3ccccc3O)nc2-c2ccccc2O)cc1 [NCGC00263572-01]
Basal_Viability ATP SNU-C1 IC50/EC50 (SNU-C1; assay number 30): 0.2328 µM | GSK3b inh pretreated_Viability ATP HCT116 IC50/EC50 ([1]; assay number 26, GSK3b inhibitor pretreated): 0.2423 µM | hGSK3b LANCE IC50/EC50 (hGSK3b; assay number 34): > 20 µM | Basal_Viability ATP RKO IC50/EC50 (RKO; assay number 29): 0.1001 µM | Basal_Viability ATP Colo 320 IC50/EC50 (Colo320; assay number 27): 0.4085 µM | VEGF_ADSC\ECFC Angio CD31 TubeArea IC50/EC50 [3]: 2.0862 µM | VEGF_ADSC\ECFC Angio Hoechst NucArea IC50/EC50 [4]: > 10 µM | hJAK2 LANCE IC50/EC50 (hJAK2; assay number 33): 18.21 µM | hFLT3 LANCE IC50/EC50 (hFLT3; assay number 35): > 20 µM | hp70S6K1 LANCE IC50/EC50 (hp70S6K1 (RPS6KB1); assay number 31): > 20 µM | hKDR LANCE IC50/EC50 (hKDR; assay number 32): > 20 µM | Basal_Viability ATP DLD-1 IC50/EC50 (DLD-1; assay number 23): 0.6507 µM | Basal_Viability ATP HT-29 IC50/EC50 (HT-29; assay number 28): 0.5159 µM | Hela CellCycMod PI 2N IC50/EC50 (HeLa cells; assay number 14, 2N): > 10 µM | Hela CellCycMod PI 4N IC50/EC50 (HeLa cells; assay number 16, 4N): > 10 µM | Hela CellCycMod PI MI IC50/EC50 (HeLa cells; assay number 17, MI): > 10 µM | Hela CellCycMod PI Cell Number IC50/EC50 (HeLa cells; assay number 18, cell number): 5.678 µM | Basal_Viability ATP SW480 IC50/EC50 (SW480; assay number 24): 0.0776 µM | Basal_Viability ATP HCT116 IC50/EC50 (HCT116; assay number 25, basal): 0.4376 µM

COc1ccc(-c2nc3ccc(C4=NNC(=O)CC4C)cc3[nH]2)cc1 (stereo not shown) [Pimobendan]
pIC50 [1, 13]: < 4.70 | pIC50 (hGSK3b): < 4.70 | pEC50 (NCI-H716 cells; Homo sapiens, IC50 / EC50, NCI-H716, read-out: GLP 1 Secretion): < 5.00 | pEC50 (INS-1E cells; Rattus norvegicus, IC50 / EC50, INS-1E, read-out: Insulin Secretion): < 5.00 | pIC50 ([3]; Homo sapiens, IC50 / EC50, endothelial tube area, ADSC/ECFC co-culture): 5.54 | pIC50 (hJAK2): < 4.70 | pIC50 (hFLT3): 5.29 | pIC50 (hp70S6K1 (RPS6KB1)): < 4.70 | pIC50 (hKDR): < 4.70 | pIC50 (DLD-1; Homo sapiens, DLD-1, basal, read-out: Basal_Viability ATP DLD-1): < 4.70 | pEC50 (HeLa cells; Homo sapiens, IC50 / EC50): < 5.00 | pIC50 (SW480; Homo sapiens, SW480, basal, read-out: Basal_Viability ATP SW480): < 4.70 | pIC50 (HCT116; Homo sapiens, HCT-116, basal, read-out: Basal_Viability ATP HCT116): 4.80

O=c1[nH]c(=O)n([C@H]2C[C@H](O)[C@@H](CO)O2)cc1C(F)(F)F [Trifluridine]
pIC50 (SNU-C1; [14]): < 4.70 | pIC50 [1, 13]: 5.90 | pIC50 (hGSK3b; kinase assay): < 4.70 | pEC50 (NCI-H716 cells; [15]): < 5.00 | pEC50 (INS-1E cells; [16]): < 5.00 | pIC50 (Colo320; COLO 320, read-out: Basal_Viability ATP Colo 320): < 4.70 | pIC50 (hJAK2; kinase assay): < 4.70 | pIC50 (hFLT3; kinase assay): < 4.70 | pIC50 (hp70S6K1 (RPS6KB1); kinase assay): < 4.70 | pIC50 (hKDR; kinase assay): < 4.70 | pIC50 (DLD-1; [17]): < 4.70 | pIC50 (HT-29; [18]): < 4.70 | pEC50 (HeLa cells; Homo sapiens): < 5.00 | pIC50 (SW480; [19]): < 4.70

CC(C)C[C@H](NC(=O)[C@H](Cc1ccccc1)NC(=O)c1cnccn1)B(O)O [bortezomib, reference compound]
pIC50 (SNU-C1; SNU-C1, 72 h, read-out: SNU-C1 viab. IC50): 8.52 | pIC50 (SNU-C1; [14]): 8.49 | pIC50 ([1]; Homo sapiens, HCT-116, 72 h, read-out: HCT-116 (GSK3β) viab. IC50): 8.70 | pIC50 [1, 13]: 8.62 | pIC50 (hGSK3b): < 4.70 | pIC50 (RKO; 72 h, read-out: RKO viab. IC50): 8.10 | pIC50 (RKO; read-out: Basal_Viability ATP RKO): 8.09 | pEC50 (NCI-H716 cells; Homo sapiens, NCI-H716, read-out: GLP1 sec. EC50): < 5.00 | pEC50 (INS-1E cells; Rattus norvegicus, INS-1E, read-out: Ins. sec. EC50): < 5.00 | pIC50 (Colo320; COLO 320, 72 h, read-out: Colo320 viab. IC50): 5.55 | pIC50 (hJAK2): < 4.70 | pIC50 (hFLT3): < 4.70 | pIC50 (hp70S6K1 (RPS6KB1)): < 4.70 | pIC50 (hKDR): < 4.70 | pIC50 (DLD-1; Homo sapiens, DLD-1, 72 h, read-out: DLD-1 viab. IC50): 8.22 | pIC50 (DLD-1; [17]): 8.20 | pIC50 (HT-29; HT-29, 72 h, read-out: HT-29 viab. IC50): 8.52 | pIC50 (HT-29; [18]): 8.50 | pEC50 (HeLa cells; Homo sapiens): < 5.00 | pIC50 (SW480; Homo sapiens, SW480, 72 h, read-out: SW480 viab. IC50): 8.30 | pIC50 (SW480; [19]): 8.29 | pIC50 (HCT116; Homo sapiens, HCT-116, 72 h, read-out: HCT-116 viab. IC50): 8.40 | pIC50 (HCT116; [20]): 8.44

CCC1=C[C@@H]2CN(C1)Cc1c([nH]c3ccccc13)[C@@](C(=O)OC)(c1cc3c(cc1OC)N(C)[C@H]1[C@@](O)(C(=O)OC)[C@H](OC(C)=O)[C@]4(CC)C=CCN5CC[C@]31[C@@H]54)C2 [vinorelbine]
pIC50 [1, 13]: 7.18 | pIC50 (hGSK3b): < 4.70 | pEC50 (NCI-H716 cells; [15]): < 5.00 | pEC50 ([2]; Mus musculus, C2C12, read-out: Wnt Pathway): 8.05 | pEC50 (INS-1E cells; [16]): < 5.00 | pIC50 ([3]; Homo sapiens): 8.26 | pIC50 (hJAK2): < 4.70 | pIC50 (hFLT3): < 4.70 | pIC50 (hp70S6K1 (RPS6KB1)): < 4.70 | pIC50 (hKDR): < 4.70 | pIC50 (DLD-1; [17]): 6.67 | pIC50 (SW480; [19]): 6.47 | pIC50 (HCT116; [20]): 7.02
